The source of these data is patent US12577217B2, “15-PGDH inhibitor” (KYORIN Pharmaceutical Co., Ltd., priority 2019, dated 2026).

For the assay, the target named is T1, recombinant human 15-PGDH (Homo sapiens, UniProt P15428).
T1 construct: purchased R&D Systems
T1 sequence (P15428 1-266): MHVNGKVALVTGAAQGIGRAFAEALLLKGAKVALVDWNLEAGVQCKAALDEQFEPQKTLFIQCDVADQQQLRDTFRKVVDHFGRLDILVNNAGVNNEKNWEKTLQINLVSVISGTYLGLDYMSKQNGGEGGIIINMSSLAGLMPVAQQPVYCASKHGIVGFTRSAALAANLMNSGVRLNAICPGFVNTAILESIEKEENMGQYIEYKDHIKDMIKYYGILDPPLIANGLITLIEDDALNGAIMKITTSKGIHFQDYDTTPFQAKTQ
As to the kind of experiment: 15-PGDH enzyme inhibition test. The note with it: 4 nM recombinant human 15-PGDH, 30 μM PGE2, 1 mM NAD+, 60 minutes after starting the reaction; read-out: IC50 Value. In kind it is biochemical. In a few lines:
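4 nM recombinant human enzyme pre-incubated with compound 12 min at room temperature in 50 mM Tris-HCl pH 8.0 with 0.01% Tween 20 and 0.01% bovine gamma globulin. Reaction started with 30 μM PGE2 and 1 mM NAD+, read after 60 min by fluorescence (ex 340/em 440 nm). IC50 from concentration-response curve.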

Molecules are shown by their SMILES.

With `CCN1Cc2cc(N3CCCc4cc(C(=O)N5CCCCC5)cnc43)ccc2C1=O` [Example 1-169], the half-maximal inhibitory concentration (IC50) is less than 10 nM.
As for `O=C(c1cnc2c(c1)CCCN2c1ccn2c(=O)[nH]nc2c1)N1CCCCC1` [Example 1-171], the IC50 is less than 10 nM.
As to `COCN1Cc2cc(N3CCCc4cc(C(=O)N5CCCCC5)cnc43)ccc2C1=O` [Example 1-172], the concentration for half-maximal inhibition (IC50) is less than 10 nM.
`O=C(c1cnc2c(c1)CCCN2c1ccc2c(=O)[nH]ccc2c1)N1CCCCC1` [Example 1-173]: the IC50 was less than 10 nM.
For the molecule `Cn1ccc2cc(N3CCCc4cc(C(=O)N5CCCCC5)cnc43)ccc2c1=O` [Example 1-174], the IC50 is less than 10 nM.
Consider `CNC(=O)c1ccc(N2CCCc3cc(C(=O)N4CCC(F)(F)CC4)cnc32)cc1F` [Example 1-175], for which the IC50 was less than 10 nM.
Then `COCCNC(=O)c1ccc(N2CCCc3cc(C(=O)N4CCC(F)(F)CC4)cnc32)cc1F` [Example 1-176], with less than 10 nM; and `O=C(c1cnc2c(c1)CCCN2c1ccc2c(c1)CN(CC1COC1)C2=O)N1CCC(F)(F)CC1` [Example 1-177], with less than 10 nM; and `O=C(c1cnc2c(c1)CCCN2c1ccc2c(c1)CN(C1COC1)C2=O)N1CCC(F)(F)CC1` [Example 1-178], with less than 10 nM.
`CNC(=O)c1ncc(N2CCCc3cc(C(=O)N4CCC(F)(F)CC4)cnc32)cc1F` [Example 1-180]: the IC50 is less than 10 nM.
Regarding `O=C(c1cnc2c(c1)CCCN2c1ccc2c(=O)[nH]ccc2c1)N1CCC(F)(F)CC1` [Example 1-181], the IC50 is less than 10 nM.
For `Cn1ccc2cc(N3CCCc4cc(C(=O)N5CCC(F)(F)CC5)cnc43)ccc2c1=O` [Example 1-182], the 50% inhibitory concentration (IC50) is less than 10 nM.
`O=C(c1cnc2c(c1)CCCN2c1cc2c(cn1)C(=O)N(C1COC1)C2)N1CCC(F)(F)CC1` [Example 1-183]: the half-inhibitory concentration (IC50) lay in the range of 10 to 100 nM.
On to `O=C(c1cnc2c(c1)CCCN2c1ccn2c(=O)[nH]nc2c1)N1CCC(F)(F)CC1` [Example 1-184], for which the concentration for half-maximal inhibition (IC50) is less than 10 nM.
`CCOCCN1Cc2cc(N3CCCc4cc(C(=O)N5CCC(F)(F)CC5)cnc43)ncc2C1=O` [Example 1-185]: the half-inhibitory concentration (IC50) fell in the range of 10 to 100 nM.
`O=C(c1cnc2c(c1)CCCN2c1cc2c(cn1)C(=O)N(CC1COC1)C2)N1CCC(F)(F)CC1` [Example 1-186]: the IC50 lay within 10 to 100 nM.
On to `Cn1ncc2cc(N3CCCc4cc(C(=O)N5CCCCC5)cnc43)ccc2c1=O` [Example 1-188], for which the IC50 is less than 10 nM.
`Cn1ncc2cc(N3CCCc4cc(C(=O)N5CCC(F)(F)CC5)cnc43)ccc2c1=O` [Example 1-189]: the IC50 is less than 10 nM.
As for `Cn1cnc2cc(N3CCCc4cc(C(=O)N5CCCCC5)cnc43)cnc2c1=O` [Example 1-190], the half-inhibitory concentration (IC50) was less than 10 nM.
As for `Cn1cnc2cc(N3CCCc4cc(C(=O)N5CCC(F)(F)CC5)cnc43)cnc2c1=O` [Example 1-191], the IC50 is less than 10 nM.
On to `O=C(c1cnc2c(c1)CCCN2c1cnc2c(=O)[nH]cnc2c1)N1CCC(F)(F)CC1` [Example 1-192], for which the IC50 is less than 10 nM.
For `Cn1ncc2cc(N3CCCc4cc(C(=O)N5CCCCC5)cnc43)cnc2c1=O` [Example 1-194], the 50% inhibitory concentration (IC50) is less than 10 nM.
Turning to `O=C(c1cnc2c(c1)CCCN2c1cnc2c(=O)[nH]ncc2c1)N1CCCCC1` [Example 1-195], the IC50 is less than 10 nM.
Take `CCCN1Cc2cc(N3CCCc4cc(C(=O)N5CCCCC5)cnc43)ccc2C1=O` [Example 1-196]: the IC50 is less than 10 nM.
`CCCCN1Cc2cc(N3CCCc4cc(C(=O)N5CCCCC5)cnc43)ccc2C1=O` [Example 1-197]: the IC50 is less than 10 nM.
Regarding `O=C(c1cnc2c(c1)CCCN2c1ccc2c(c1)CN(C1CC1)C2=O)N1CCCCC1` [Example 1-198], the half-maximal inhibitory concentration (IC50) is less than 10 nM.
As to `O=C(c1cnc2c(c1)CCCN2c1ccccc1)N1CCCCC1` [Example 1-199], the IC50 is 10 to 100 nM.
`COc1ccc(N2CCCc3cc(C(=O)N4CCCCC4)cnc32)cc1` [Example 1-200]: the concentration for half-maximal inhibition (IC50) lay in the range of 10 to 100 nM.
Take `Cn1nnc(-c2ccc(N3CCCc4cc(C(=O)N5CCCCC5)cnc43)cc2)n1` [Example 1-201]: the IC50 is less than 10 nM.
For `CCCn1nc2cc(N3CCCc4cc(C(=O)N5CCCCC5)cnc43)ccn2c1=O` [Example 1-202], the IC50 was less than 10 nM.
Consider `CCCCn1nc2cc(N3CCCc4cc(C(=O)N5CCCCC5)cnc43)ccn2c1=O` [Example 1-203], for which the IC50 is less than 10 nM.
Then `CNC(=O)c1ccc(N2CCCc3cc(C(=O)N4CCCCC4)cnc32)cc1` [Example 1-204], with less than 10 nM.
The value for `COC(=O)c1ccc(N2CCCc3cc(C(=O)N4CCCCC4)cnc32)cc1` [Example 1-205] was less than 10 nM; that for `CNC(=O)c1ccc(N2CCCc3cc(C(=O)N4CCCCC4)cnc32)cc1C` [Example 1-207] was 10 to 100 nM.
In the case of `N#Cc1ccc(N2CCCc3cc(C(=O)N4CCCCC4)cnc32)cc1` [Example 1-209], the concentration for half-maximal inhibition (IC50) is less than 10 nM.
`CNC(=O)c1ccc(N2CCCc3cc(C(=O)N4CCCCC4)cnc32)cn1` [Example 1-210]: the IC50 is less than 10 nM.
Take `O=C(c1cnc2c(c1)CCCN2c1ccc(Cl)cc1)N1CCCCC1` [Example 1-211]: the IC50 lay in the range of 10 to 100 nM.
Regarding `O=C(O)c1ccccc1N1CCCc2cc(C(=O)N3CCCCC3)cnc21` [Example 1-212], the IC50 lay in the range of 10 to 100 nM.
For the molecule `O=C(c1cnc2c(c1)CCCN2c1ccc2c(c1)CN(C1CC1)C2=O)N1CCC(F)(F)CC1` [Example 1-213], the half-maximal inhibitory concentration (IC50) was less than 10 nM.
In the case of `O=C(c1cnc2c(c1)CCCN2c1ccc(F)cc1)N1CCCCC1` [Example 1-214], the half-maximal inhibitory concentration (IC50) lay in the range of 10 to 100 nM.
As for `CCCn1nc2cc(N3CCOc4cc(C(=O)N5CCCCC5)cnc43)ccn2c1=O` [Example 1-215], the 50% inhibitory concentration (IC50) was less than 10 nM.
Take `CCCCn1nc2cc(N3CCOc4cc(C(=O)N5CCCCC5)cnc43)ccn2c1=O` [Example 1-216]: the IC50 is less than 10 nM.
Take `Cn1ccc2cc(N3CCOc4cc(C(=O)N5CCCCC5)cnc43)ccc2c1=O` [Example 1-217]: the IC50 is less than 10 nM.
In the case of `Cn1ncc2cc(N3CCOc4cc(C(=O)N5CCCCC5)cnc43)ccc2c1=O` [Example 1-218], the IC50 was less than 10 nM.
As to `O=C(c1cnc2c(c1)OCCN2c1ccc2c(=O)[nH]ccc2c1)N1CCCCC1` [Example 1-219], the IC50 is less than 10 nM.
For `CCCN1Cc2cc(N3CCOc4cc(C(=O)N5CCCCC5)cnc43)ccc2C1=O` [Example 1-222], the IC50 was less than 10 nM.
For `CCCCN1Cc2cc(N3CCOc4cc(C(=O)N5CCCCC5)cnc43)ccc2C1=O` [Example 1-223], the 50% inhibitory concentration (IC50) was less than 10 nM.
Consider `O=C(c1cnc2c(c1)OCCN2c1ccc2c(c1)CN(C1CC1)C2=O)N1CCCCC1` [Example 1-224], for which the concentration for half-maximal inhibition (IC50) was less than 10 nM.
Consider `CN1Cc2ccc(N3CCOc4cc(C(=O)N5CCCCC5)cnc43)cc2C1=O` [Example 1-225], for which the concentration for half-maximal inhibition (IC50) was 10 to 100 nM.
The value for `Cn1cnc2cc(N3CCOc4cc(C(=O)N5CCC(F)(F)CC5)cnc43)ccc2c1=O` [Example 1-226] was less than 10 nM; that for `O=C(c1cnc2c(c1)OCCN2c1ccc2c(c1)CN(C1CC1)C2=O)N1CCC(F)(F)CC1` [Example 1-227] was less than 10 nM; that for `CN1CCN(c2ccccc2)c2ncc(C(=O)N3CCCCC3)cc21` [Example 1-228] was greater than 100 nM.
As to `COc1cc(N2CCOc3cc(C(=O)N4CCCCC4)cnc32)cc2nn(C)c(=O)n12` [Example 1-230], the 50% inhibitory concentration (IC50) lay in the range of 10 to 100 nM.
As to `O=C(c1cnc2c(c1)OCCN2c1ccccc1)N1CCCCC1` [Example 1-232], the 50% inhibitory concentration (IC50) fell in the range of 10 to 100 nM.

One may read the IC50 as the concentration that inhibits the measured activity by half.
